Organism: Rattus norvegicus
Assay: Open TG-GATES - Regimen: Single
Format: toxicity, organism-based, Sprague-Dawley
Set-up: regimen Single, gender Male, age 6 weeks
Settings: in vivo, po, route gavage; for WBC / APTT / Bas / Eos / Fbg / Hb / Ht / Lym / MCH / MCHC / MCV / Mono / Neu / PT / Plat / RBC / Ret: tissue Blood; for KIDNEY_L / KIDNEY_R / KIDNEY_TOTAL: tissue Kidney; for LIVER: tissue Liver; for A/G / ALP / ALT / AST / BUN / CRE / Ca / Cl / DBIL / GLC / IP / K / LDH / Na / PL / RALB / TBIL / TC / TG / TP / gamma-GTP: tissue Plasma
[1] = 2 mg/kg, 9 h, dose level Middle
[2] = 2 mg/kg, 24 h, dose level Middle

COc1ccc2c(c1)c(CC(=O)O)c(C)n2C(=O)c1ccc(Cl)cc1 [INDOMETHACIN] was tested, and the WBC [1] was 114.3 x10_2/uL, the KIDNEY_L [1] was 0.9 g and the KIDNEY_R [1] was 0.9 g. It also gave a KIDNEY_TOTAL [1] of 1.8 g, an LIVER [1] of 8.3 g and an A/G [1] of 2.7. For the same compound, the ALP [1] was 944 IU/L, the ALT [1] was 35.2 IU/L and the AST [1] was 65.6 IU/L. It also gave a BUN [1] of 14.2 mg/dL, a CRE [1] of 0.5 mg/dL and a Ca [1] of 10.2 mg/dL. The Cl [1] was 106.8 meq/L, the DBIL [1] was 0.01 mg/dL and the GLC [1] was 199.6 mg/dL. It also gave an IP [1] of 10.5 mg/dL, a K [1] of 5 meq/L and an LDH [1] of 80.8 IU/L. For the same compound, the Na [1] was 138.2 meq/L, the PL [1] was 125.8 mg/dL and the RALB [1] was 3.9 g/dL. It also gave a TBIL [1] of 0.5 mg/dL, a TC [1] of 72.2 mg/dL and a TG [1] of 35.4 mg/dL. For the same compound, the TP [1] was 5.3 g/dL, the gamma-GTP [1] was 1.8 IU/L and the TERMINAL_BW [2] was 209.2 g. The APTT [2] was 16.1 s, the Bas [2] was 0% and the Eos [2] was 0.8%. For the same compound, the Fbg [2] was 204.6 mg/dL, the Hb [2] was 13.4 g/dL and the Ht [2] was 40.7%. The Lym [2] was 80.6%, the MCH [2] was 21.5 pg and the MCHC [2] was 33%. For the same compound, the MCV [2] was 65 fL, the Mono [2] was 8.8% and the Neu [2] was 10.2%. The PT [2] was 12.1 s, the Plat [2] was 96.4 x10_4/uL and the RBC [2] was 626.8 x10_4/ul. The Ret [2] was 8.6%, the WBC [2] was 112.4 x10_2/uL and the KIDNEY_L [2] was 0.9 g. It also gave a KIDNEY_R [2] of 0.9 g, a KIDNEY_TOTAL [2] of 1.9 g and an LIVER [2] of 10.1 g. The A/G [2] was 2.4, the ALP [2] was 1232.8 IU/L and the ALT [2] was 38.2 IU/L. It also gave an AST [2] of 70.6 IU/L, a BUN [2] of 16.4 mg/dL and a CRE [2] of 0.5 mg/dL. For the same compound, the Ca [2] was 10.4 mg/dL, the Cl [2] was 106.4 meq/L and the DBIL [2] was 0.004 mg/dL. The GLC [2] was 195.4 mg/dL, the IP [2] was 8.1 mg/dL and the K [2] was 4.9 meq/L. For the same compound, the LDH [2] was 83.6 IU/L, the Na [2] was 138.4 meq/L and the PL [2] was 140.6 mg/dL. It also gave an RALB [2] of 3.9 g/dL, a TBIL [2] of 0.3 mg/dL and a TC [2] of 75.4 mg/dL. The TG [2] was 95.2 mg/dL, the TP [2] was 5.6 g/dL and the gamma-GTP [2] was 1.4 IU/L. For the same compound, the TERMINAL_BW (5 mg/kg, 3 h, dose level High) was 201.4 g, the TERMINAL_BW (5 mg/kg, 3 h, dose level Low) was 224.1 g and the APTT (5 mg/kg, 3 h, dose level High) was 16.5 s. The Bas (5 mg/kg, 3 h, dose level High) was 0%, the Eos (5 mg/kg, 3 h, dose level High) was 0.2% and the Fbg (5 mg/kg, 3 h, dose level High) was 211 mg/dL. For the same compound, the Hb (5 mg/kg, 3 h, dose level High) was 13.6 g/dL, the Ht (5 mg/kg, 3 h, dose level High) was 41.1% and the Lym (5 mg/kg, 3 h, dose level High) was 78.4%. It also gave an MCH (5 mg/kg, 3 h, dose level High) of 21.5 pg, an MCHC (5 mg/kg, 3 h, dose level High) of 33.3% and an MCV (5 mg/kg, 3 h, dose level High) of 64.8 fL. The Mono (5 mg/kg, 3 h, dose level High) was 9%, the Neu (5 mg/kg, 3 h, dose level High) was 12.4% and the PT (5 mg/kg, 3 h, dose level High) was 12.5 s. It also gave a Plat (5 mg/kg, 3 h, dose level High) of 108.6 x10_4/uL, an RBC (5 mg/kg, 3 h, dose level High) of 634.6 x10_4/ul and a Ret (5 mg/kg, 3 h, dose level High) of 8.9%. It also gave a WBC (5 mg/kg, 3 h, dose level High) of 130.2 x10_2/uL, an APTT (5 mg/kg, 3 h, dose level Low) of 18.2 s and an Eos (5 mg/kg, 3 h, dose level Low) of 0.8%. For the same compound, the Fbg (5 mg/kg, 3 h, dose level Low) was 222.6 mg/dL, the Hb (5 mg/kg, 3 h, dose level Low) was 13.9 g/dL and the Ht (5 mg/kg, 3 h, dose level Low) was 38%. The Lym (5 mg/kg, 3 h, dose level Low) was 79.4%, the MCH (5 mg/kg, 3 h, dose level Low) was 22.1 pg and the MCHC (5 mg/kg, 3 h, dose level Low) was 36.6%. It also gave an MCV (5 mg/kg, 3 h, dose level Low) of 60.4 fL, a Mono (5 mg/kg, 3 h, dose level Low) of 2.8% and a Neu (5 mg/kg, 3 h, dose level Low) of 15.6%. The PT (5 mg/kg, 3 h, dose level Low) was 11.7 s, the Plat (5 mg/kg, 3 h, dose level Low) was 115.7 x10_4/uL and the RBC (5 mg/kg, 3 h, dose level Low) was 629.4 x10_4/ul. For the same compound, the Ret (5 mg/kg, 3 h, dose level Low) was 7.6%, the WBC (5 mg/kg, 3 h, dose level Low) was 76.1 x10_2/uL and the KIDNEY_L (5 mg/kg, 3 h, dose level High) was 0.9 g. It also gave a KIDNEY_R (5 mg/kg, 3 h, dose level High) of 1 g, a KIDNEY_TOTAL (5 mg/kg, 3 h, dose level High) of 1.9 g and a KIDNEY_L (5 mg/kg, 3 h, dose level Low) of 1 g. It also gave a KIDNEY_TOTAL (5 mg/kg, 3 h, dose level Low) of 2.1 g, an LIVER (5 mg/kg, 3 h, dose level High) of 9.2 g and an LIVER (5 mg/kg, 3 h, dose level Low) of 9.6 g. The A/G (5 mg/kg, 3 h, dose level High) was 1.5, the ALP (5 mg/kg, 3 h, dose level High) was 1085.6 IU/L and the ALT (5 mg/kg, 3 h, dose level High) was 42.6 IU/L. For the same compound, the AST (5 mg/kg, 3 h, dose level High) was 70.2 IU/L, the BUN (5 mg/kg, 3 h, dose level High) was 11 mg/dL and the CRE (5 mg/kg, 3 h, dose level High) was 0.4 mg/dL. For the same compound, the Ca (5 mg/kg, 3 h, dose level High) was 10.5 mg/dL, the Cl (5 mg/kg, 3 h, dose level High) was 105.2 meq/L and the DBIL (5 mg/kg, 3 h, dose level High) was 0.034 mg/dL. It also gave a GLC (5 mg/kg, 3 h, dose level High) of 191 mg/dL, an IP (5 mg/kg, 3 h, dose level High) of 9.5 mg/dL and a K (5 mg/kg, 3 h, dose level High) of 5 meq/L. For the same compound, the LDH (5 mg/kg, 3 h, dose level High) was 172 IU/L, the Na (5 mg/kg, 3 h, dose level High) was 137 meq/L and the PL (5 mg/kg, 3 h, dose level High) was 126.2 mg/dL. The RALB (5 mg/kg, 3 h, dose level High) was 3.6 g/dL, the TBIL (5 mg/kg, 3 h, dose level High) was 0.3 mg/dL and the TC (5 mg/kg, 3 h, dose level High) was 71.8 mg/dL. The TG (5 mg/kg, 3 h, dose level High) was 55 mg/dL, the TP (5 mg/kg, 3 h, dose level High) was 6.1 g/dL and the gamma-GTP (5 mg/kg, 3 h, dose level High) was 1.2 IU/L. For the same compound, the A/G (5 mg/kg, 3 h, dose level Low) was 1.6, the ALP (5 mg/kg, 3 h, dose level Low) was 872.4 IU/L and the ALT (5 mg/kg, 3 h, dose level Low) was 37.8 IU/L. The AST (5 mg/kg, 3 h, dose level Low) was 76.4 IU/L, the BUN (5 mg/kg, 3 h, dose level Low) was 10.8 mg/dL and the Cl (5 mg/kg, 3 h, dose level Low) was 103 meq/L. For the same compound, the DBIL (5 mg/kg, 3 h, dose level Low) was 0.068 mg/dL, the GLC (5 mg/kg, 3 h, dose level Low) was 187.6 mg/dL and the IP (5 mg/kg, 3 h, dose level Low) was 9.3 mg/dL. For the same compound, the K (5 mg/kg, 3 h, dose level Low) was 4.2 meq/L, the LDH (5 mg/kg, 3 h, dose level Low) was 213 IU/L and the Na (5 mg/kg, 3 h, dose level Low) was 140.8 meq/L. It also gave a PL (5 mg/kg, 3 h, dose level Low) of 145.6 mg/dL, an RALB (5 mg/kg, 3 h, dose level Low) of 3.3 g/dL and a TBIL (5 mg/kg, 3 h, dose level Low) of 0.1 mg/dL. For the same compound, the TC (5 mg/kg, 3 h, dose level Low) was 85.4 mg/dL.
